Test results from US20080125498A1, “TREATMENT OF NEURODEGENERATIVE DISEASES AND CONDITIONS USING PAR1 ANTAGONISTS” (priority 2001, published 2008).
Square brackets hold non-standard residues; d marks the D form. * marks the point of attachment. Phe(4-guanidino) = N=C(N)Nc1ccc(C[C@H](N)C(=O)O)cc1; Phe(4-F) = N[C@@H](Cc1ccc(F)cc1)C(=O)O; trans‑cinnamoyl = O=C(/C=C/c1ccccc1)*

Legend:
NMDA receptor [1] = experiment: Whole cell patch recording of NMDA-evoked currents in hippocampal slice CA1 pyramidal neurons; type: cell-based, rat
NMDA receptor [2] = experiment: Whole cell patch recording of NMDA-evoked currents in hippocampal CA1 pyramidal cells of wild-type and PAR1-/- mice; type: cell-based, mouse; settings: 100 micromolar APV, wild-type and PAR1-/- mice
PAR1 [3] = experiment: Free intracellular calcium in cultured astrocytes (Fluo-3 AM); type: cell-based, mouse
PAR1 [4] = type: cell-based, rat
PAR1 [5] = experiment: PI hydrolysis in hippocampal slices; type: cell-based, mouse; settings: pre-incubation with antagonist peptide
From the text: PAR1 is a seven transmembrane G-protein coupled receptor that stimulates G-alpha-q to initiate phosphatidyl inositol (PI) hydrolysis. To ensure that PAR1 is functional in regions of the brain that are subject to ischemic damage in the mouse transient focal ischemia model, we tested the ability of several activators of PAR1 to initiate PI hydrolysis (Chung et al., 1997) in the hippocampus and striatum.
Since tPA activates plasminogen to form plasmin, we tested whether exogenously applied tPA could activate endogenous plasminogen in brain slices to form plasmin and activate PAR1.

NR1 subunit = experiment: NMDA receptor subunit immunoblots of thrombin-treated brain membranes; type: biochemical, rat; settings: 0.1-1 mM SFLLRN
Method: NMDA receptor subunit immunoblots. Human embryonic kidney (HEK) cells were maintained in DMEM supplemented with 0.5 mM glutamine, 1 mM pyruvate, penicillin, streptomycin, and 10% fetal bovine serum in a humidified environment with 5% CO2, and transfected with 1 microgram/ml of NR1 or 1:2 microgram/ml NR1:NR2 cDNA. Cells were washed in ice-cold HEPES buffered saline (HBS), scraped on ice, and membranes isolated by centrifugation at 12,000×g. […] Adult rat brain regions were dissected, frozen in liquid nitrogen, homogenized in ice-cold HEPES buffered saline (HBS), centrifuged, and stored at −20° C. Membranes were resuspended in HBS and treated with thrombin or buffer for 30 min at 37° C. Samples were centrifuged, and the membrane pellet resuspended in 2% sodium dodecylsulphate (SDS), 62.5 mM Tris, 10% glycerol, 5% beta-mercaptoethanol, 0.05% bromophenol blue (pH 6.8); some samples were treated with IOU DNase for 10 min at 37° C. SDS/polyacrylamide gel electrophoresis (SDS/PAGE) and protein blotting to Immobilon-P membranes was performed as described (Lau and Huganir, Differential tyrosine phosphorylation of N-methyl-D-aspartate receptor subunits. J Biol Chem 270: 20036-20041, 1995). Membranes were blocked for 30 min in 0.2 M Tris base, 1.37 M NaCl, pH 7.4, containing 5% nonfat dry milk, and incubated overnight at 4° C. in primary antibodies: NR1 mAb54.1 (gift from Dr. S. Heinemann, Salk Institute, La Jolla Calif.), NR1 alt-C-terminal (Upstate Biotechnology, Lake Placid, N.Y.), NR2A C-terminal (Chemicon, Temecula, Calif.), or NR2B C-terminal (Upstate Biotechnology). Membranes were washed 3×, and incubated with HRP-conjugated goat anti-mouse or goat anti-rabbit antibodies (1:10,000), washed 3×, and developed using enhanced chemiluminescence. The percent of receptor cleaved by thrombin was determined using densitometry.

NMDA receptor [6] = experiment: Two electrode voltage clamp of recombinant NMDA receptors with or without PAR1 in Xenopus oocytes; type: cell-based, Xenopus laevis
Method: Expression and recording of NMDA and PAR1 receptor function in Xenopus laevis oocvtes. cRNA was synthesized from linearized template cDNA according to manufacturer specifications (Ambion, Austin, Tex.). Xenopus oocytes were removed from ovaries of female frogs anesthetized with 0.3% 3-aminobenzoic acid ethylester. Groups of 20-30 stage V-VI oocytes were incubated in 292 U/ml Worthington (Freehold, N.J.) Type IV collagenase for 2 hours with slow shaking. The oocytes were rinsed in Barth's solution, and stored at 17° C. in Barth's solution supplemented with 100 microgram/ml gentamycin and 40 microgram/ml streptomycin. Control oocytes were injected with 3 ng NR1 subunit and 7 ng NR2B subunit. Other oocytes were injected with the NMDA receptor subunits plus 3 ng PAR1 cRNA. Two electrode voltage clamp recordings were made 3-7 days post-injection. Oocytes were continually perfused with recording solution (in mM, 90 NaCl, 1 KCl, 10 HEPES, pH 7.4) and held under voltage clamp at −30 to −50 mV with an OC-725B amplifier (Warner Instruments, Hamden, Conn.). Recording solution was supplemented with 1.0 mM CaCl2 during initial impalement of the oocytes and subsequently 0.5 mM BaCl2 during recording to reduce the calcium-activated chloride current endogenous to oocytes. […] NMDA receptor currents were evoked by 20 micromolar glutamate/10 micromolar glycine perfused for 0.5-1 minute. […] Expression of PAR1 protein was verified by a thrombin or SFLLRN-stimulated rapidly desensitizing inward current at −30 mV that reflects the Ca^2+-activated Cl^− current endogenous to the oocyte. To test the ability of thrombin to modify NMDA receptor function in oocytes, recordings of receptor function were made both before and after a 15-60 min incubation in recording solution supplemented with thrombin in Eppendorf tubes at room temperature. […] Oocytes with responses less than 50 nA were not included in the analysis.

`N[C@H](CCCP(=O)(O)O)C(=O)O` [APV, D-2-amino-5-phosphonovaleric acid, reference compound] was tested, and the “block of responses to NMDA/glycine” value (NMDA receptor [1]; 100 micromolar APV) was “blocked the response” and the “block of NMDA receptor response following thrombin treatment” value (NMDA receptor [2]) was “abolished”.
With `Nc1ncnc2c1ncn2[C@@H]1O[C@H](COP(=O)(O)OP(=O)(O)OP(=O)(O)O)[C@@H](O)[C@H]1O` [ATP] the free intracellular calcium (PAR1 [3]; cultured astrocytes from PAR1-/- knockout mice) was “increases free intracellular calcium” and the free intracellular calcium (PAR1 [3]; cultured astrocytes from wild type mice) was “increases free intracellular calcium”.
With `NC(N)=NCCC[C@H](NC(=O)[C@@H]1CCCN1C(=O)[C@H](N)Cc1ccccc1)C(=O)CCl` [PPACK, D-Phe-Pro-Arg-chloromethylketone] the “response magnitude to thrombin (F/Fo) with PPACK” value (PAR1 [4]) was 1.1±0.04 fold.
With “N-trans-cinnamoyl-p-fluoroPhe-p-guanidinoPhe-Leu-Arg-Arg-NH2 ({trans‑cinnamoyl}-[Phe(4-F)][Phe(4-guanidino)]LRR-NH2; SMILES CC(C)C[C@H](NC(=O)[C@H](Cc1ccc(NC(=N)N)cc1)NC(=O)[C@H](Cc1ccc(F)cc1)NC(=O)/C=C/c1ccccc1)C(=O)N[C@@H](CCCNC(=N)N)C(=O)N[C@@H](CCCNC(=N)N)C(N)=O) [PAR1 antagonist peptide, reference compound]” the “inhibition of PI hydrolysis produced by thrombin and plasmin” value (PAR1 [5]) was “inhibited PI hydrolysis”.
For SFLLRN [reference compound], the “potentiation of the response to pressure applied NMDA plus glycine” value (NMDA receptor [1]; 30 micromolar SFLLRN, n=9) was 1.76±0.19 fold, the “stimulation of NR1 cleavage” value (NR1 subunit) was “did not stimulate cleavage” and the “potentiation of NMDA receptor current after SFLLRN stimulation of PAR1” value (NMDA receptor [6]; NR1-1a/NR2B plus PAR1, 10-30 micromolar SFLLRN, n=9) was 1.41±0.11 fold. For the same molecule, the “SFLLRN potentiation of NR1-1a/NR2A receptors” value (NMDA receptor [6]; oocytes with PAR1, 10-30 micromolar SFLLRN, n=6) was 1.85±0.1 fold and the “Fluo-3 fluorescence in soma and dendrites” value (PAR1 [4]; 3 nM thrombin or 10 micromolar SFLLRN, TTX/APV present, subset of neurons) was “robust increase”.
